We go through three molecules from patent US6399632B1, “Method of providing an antihistaminic effect in a hepatically impaired patient” (Merrell Pharmaceuticals Inc., priority 1992, dated 2002).

Data set [1] in a line: plasma concentrations of unchanged terfenadine and acid metabolite formation in subjects. Format: in vivo.
For data set [2] the following is noted: to two primary metabolites; cited from earlier work.
The next data set has as its target histamine H1-receptor (Homo sapiens, UniProt P35367). Particulars: primary metabolites of terfenadine; cited from earlier work.
Data set [3] concerns patients with impaired hepatic function. Particulars: recommended dose of terfenadine, or antihistaminic amount of acid metabolite.
[4] abbreviates: cases of hepatic impairment, preliminary information.

Sequence of histamine H1-receptor (P35367 whole entry, species assumed): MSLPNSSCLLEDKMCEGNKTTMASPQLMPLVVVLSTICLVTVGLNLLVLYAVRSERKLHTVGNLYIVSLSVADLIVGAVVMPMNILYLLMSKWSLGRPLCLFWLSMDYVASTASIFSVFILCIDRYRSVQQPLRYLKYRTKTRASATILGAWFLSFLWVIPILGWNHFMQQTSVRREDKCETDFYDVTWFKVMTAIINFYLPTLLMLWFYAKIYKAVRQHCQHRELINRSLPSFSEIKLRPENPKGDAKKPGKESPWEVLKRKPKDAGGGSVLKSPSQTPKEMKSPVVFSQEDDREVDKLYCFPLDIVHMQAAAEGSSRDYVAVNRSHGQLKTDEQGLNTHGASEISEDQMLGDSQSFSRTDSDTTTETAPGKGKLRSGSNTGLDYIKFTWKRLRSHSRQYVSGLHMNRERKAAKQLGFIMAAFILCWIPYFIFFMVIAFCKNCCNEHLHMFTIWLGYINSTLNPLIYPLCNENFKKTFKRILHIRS

On to `CC(C)(C)c1ccc(C(O)CCCN2CCC(C(O)(c3ccccc3)c3ccccc3)CC2)cc1` (stereo not drawn) [Terfenadine, α-[4-(1,1-dimethylethyl)phenyl]-4-(hydroxydiphenylmethyl)-1-piperidinebutanol], for which, in data set [1] (setting [4]), the “rate of acid metabolite formation” value is “decreased” and the “unchanged terfenadine plasma concentrations” value is “significant concentrations of unchanged terfenadine can be detected”. The “unchanged terfenadine plasma concentrations” value in data set [1] (subjects with normal hepatic function) is reported as “have not been detected”. In addition, the first pass metabolism in data set [2] is given as 99%.
`OC(c1ccccc1)(c1ccccc1)C1CCNCC1` [dealkylated metabolite]: the “activity of metabolite (antihistaminic)” value at histamine H1-receptor was “inactive”.
As to `CC(C)(C(=O)O)c1ccc(C(O)CCCN2CCC(C(O)(c3ccccc3)c3ccccc3)CC2)cc1` (stereo not drawn) [terfenadine acid metabolite, 4-[l-hydroxy-4-[4-(hydroxydiphenylmethyl)-1-piperidinyl]butyl]-α,α-dimethyl-benzeneacetic acid], the “cardiac events of QT prolongation and/or ventricular tachycardia” value in data set [3] is “will not experience cardiac events of QT prolongation and/or ventricular tachycardia”.
